According to US20150368248A1, “2-SUBSTITUTED-6-BIARYLMETHYLAMINO-9-CYCLOPENTYL-9H-PURINE DERIVATIVES, USE THEREOF AS MEDICAMENTS, AND PHARMACEUTICAL COMPOSITIONS” (UNIVERZITA PALACKEHO V OLOMOUCI, priority 2013, published 2015):
Like-named read-outs stand apart in the source and are kept apart here.

What was measured:
[1] = tested on: caspase-3/7 activity in PLC/PRF/5 cell line; assay: One-step cellular caspase-3/7 activity assay; format: cell-based, human; conditions: 24 hours incubation, relative to 0 nM = 1.00
Method: (§1) Measurements of proapoptotic properties of new compounds were based on quantification of enzymatic activities of caspases, concretely caspases-3/7. Activity of cellular caspase-3/7 was measured according to Carrasco et al., 2003, BioTechniques, 34(5): 1064-67. Briefly, Hep3B and PLC/PRF/5 cells were incubated in the densities of 10000 cells/well in a 96-well plate overnight. Next day, the compounds in appropriate concentrations were added and cells were incubated for the 24 hours. After incubation, 3× caspase-3/7 assay buffer (150 mM HEPES pH 7.4, 450 mM NaCl, 150 mM KCl, 30 mM MgCl2, 1.2 mM EGTA, 1.5% Nonidet P40, 0.3% CHAPS, 30% sucrose, 30 mM DTT, 3 mM PMSF) with 150 μM Ac-DEVD-AMC as a substrate (Sigma-Aldrich) was added to the wells and plates were incubated at […]. The caspase-3/7 activity was measured after 6 hours using Fluoroskan Ascent microplate reader (Labsystems) at 346 nm/442 nm (excitation/emission).

[2] = tested on: caspase-3/7 activity in Hep3B cell line; assay: One-step cellular caspase-3/7 activity assay; format: cell-based, human; conditions: 24 hours, 0 nM = 1.00
Method: as §1

Hep3B = assay: MTT cytotoxicity assay (Example 30); format: cell-based, human; conditions: Homo sapiens, Hep3B, 72 h; MTT, three days after drug addition; read-out: Inhibitory concentration IC50, Hep3B
Method: Cytotoxicity of the compounds is the major property determining their anticancer effect in vivo. One of the parameters used, as the basis for cytotoxicity assays, is the metabolic activity of viable cells.
We have been using the following cell lines: HUH-7 and PLC/PRF/5 cell lines were maintained in DMEM supplemented with 10% fetal bovine serum, penicillin (100 U/ml) and streptomycin (100 μg/ml). […] HepG2 cell line was maintained in EMEM supplemented with 10% fetal bovine serum, sodium pyruvate (0.11 g/1), penicillin (100 U/ml) and streptomycin (100 μg/ml). All cell lines were cultivated at 37° C. in 5% CO2. For cytotoxicity assays, 3000 cells (10000 cells in case of HepG2 cell line) were seeded into each well of 96 well plate and the next day tested compounds were added at various concentrations in triplicates. Three days after drug addition MTT stock solution (5 mg/ml) was added into each well and incubated for 4 h. After this incubation period, produced formazan was dissolved by DMSO and final absorbance was measured at 570 nm with Synergy H4 Hybrid Multi-Mode Microplate Reader.

[3] = tested on: human umbilical vein endothelial cells (HUVEC); assay: HUVEC proliferation, Calcein AM; format: cell-based; conditions: Homo sapiens, HUVEC, read-out: Inhibitory concentration for HUVEC cells - IC50
Method: Novel 2-substituted-6-biarylmethylamino-9-cyclopentyl-9H-purine derivatives were tested for their potential anti-angiogenic properties; we analyzed its influence on the proliferation (Tab. 9), migration and tube formation of human umbilical vein endothelial cells (HUVEC). Confluent HUVECs were seeded in 96-well microtiter plates to detect their proliferation for 24 or 72 h using Calcein AM solution (Invitrogen) and a Fluoroskan Ascent microplate reader (Labsystems) as described previously (Krystof et al., 2011, Eur J Med Chem. 2011 September; 46(9):4289-94).

Compound	Relative caspase-3/7 activity in PLC/PRF/5 cell line ([1]; compound concentration 40 nM)	Relative caspase-3/7 activity in PLC/PRF/5 cell line ([1]; compound concentration 80 nM)	Relative caspase-3/7 activity in PLC/PRF/5 cell line ([1]; compound concentration 160 nM)	Relative caspase-3/7 activity in PLC/PRF/5 cell line ([1]; compound concentration 320 nM)	Relative caspase-3/7 activity in PLC/PRF/5 cell line ([1]; compound concentration 640 nM)	Relative caspase-3/7 activity in PLC/PRF/5 cell line ([1]; compound concentration 1280 nM)	Relative caspase-3/7 activity in Hep3B cell line ([2]; 200 nM)	Relative caspase-3/7 activity in Hep3B cell line ([2]; 400 nM)	Relative caspase-3/7 activity in Hep3B cell line ([2]; 800 nM)	Relative caspase-3/7 activity in Hep3B cell line ([2]; 1600 nM)	IC50 (Hep3B) [nM]	IC50 ([3]; 24 h) [nM]	IC50 ([3]; 72 h) [nM]	Relative caspase-3/7 activity in Hep3B cell line ([2]; 100 nM)
NC1CCC(Nc2nc(NCc3ccc(-c4cccc(F)c4)cc3)c3ncn(C4CCCC4)c3n2)CC1 (stereo not shown) [BP12, N^2-(4-amino-cyclohexyl)-9-cyclopentyl-N^6-(3′-fluoro-biphenyl-4-ylmethyl)-9H-purine-2,6-diamine]	0.93	1.27	3.10	2.95	>5.00	>5.00	1.12	4.20	7.04	9.85	418	–	–	–
Nc1ccccc1-c1ccc(CNc2nc(NC3CCC(N)CC3)nc3c2ncn3C2CCCC2)cc1 (stereo not shown) [BP32, N^2-(4-amino-cyclohexyl)-9-cyclopentyl-N^6-(2′-amino-biphenyl-4-ylmethyl)-9H-purine-2,6-diamine]	0.62	1.00	0.69	2.01	>5.00	>5.00	0.70	1.15	2.48	7.53	400	–	–	–
NC1CCC(Nc2nc(NCc3ccc(-c4ccsc4)cc3)c3ncn(C4CCCC4)c3n2)CC1 (stereo not shown) [BP5, N^2-(4-amino-cyclohexyl)-9-cyclopentyl-N^6-(4-thiophen-3-yl-benzyl)-9H-purine-2,6-diamine]	0.65	1.07	2.22	3.37	>5.00	>5.00	1.09	1.48	6.65	8.96	405	–	–	–
COc1ccccc1-c1ccc(CNc2nc(NC3CCC(N)CC3)nc3c2ncn3C2CCCC2)cc1 (stereo not shown) [BP16, N^2-(4-amino-cyclohexyl)-9-cyclopentyl-N^6-(2′-methoxy-biphenyl-4-ylmethyl)-9H-purine-2,6-diamine]	1.01	0.73	1.15	2.42	>5.00	>5.00	0.93	1.26	2.82	7.07	532	–	–	–
NC1CCC(Nc2nc(NCc3ccc(-c4ccoc4)cc3)c3ncn(C4CCCC4)c3n2)CC1 (stereo not shown) [BP13, N^2-(4-amino-cyclohexyl)-9-cyclopentyl-N^6-(4-furan-3-yl-benzyl)-9H-purine-2,6-diamine]	0.99	1.37	1.72	2.28	>5.00	>5.00	0.95	1.71	5.65	7.81	518	–	–	–
NC1CCC(Nc2nc(NCc3ccc(-c4cccs4)cc3)c3ncn(C4CCCC4)c3n2)CC1 (stereo not shown) [BP2, N^2-(4-amino-cyclohexyl)-9-cyclopentyl-N^6-(4-thiophen-2-yl-benzyl)-9H-purine-2,6-diamine]	1.09	1.14	1.30	2.24	>5.00	>5.00	1.09	1.40	3.73	7.77	460	–	–	–
NC1CCC(Nc2nc(NCc3ccc(-c4ccco4)cc3)c3ncn(C4CCCC4)c3n2)CC1 (stereo not shown) [BP4, N^2-(4-amino-cyclohexyl)-9-cyclopentyl-N^6-(4-furan-2-yl-benzyl)-9H-purine-2,6-diamine]	–	–	0.67	0.61	0.33	0.55	1.12	1.44	5.58	9.25	708	15700	450	–
NC1CCC(Nc2nc(NCc3ccc(-n4cccn4)cc3)c3ncn(C4CCCC4)c3n2)CC1 (stereo not shown) [BP24, N^2-(4-amino-cyclohexyl)-9-cyclopentyl-N^6-(4-pyrazol-1-yl-benzyl)-9H-purine-2,6-diamine]	2.01	2.59	>5.00	>5.00	>5.00	>5.00	6.18	6.81	9.80	9.65	115	> 50000	170	1.98
